Measured values as given in PubChem BioAssay AID1963839 (Molecular Pharmacology Branch, DTP, NCI, 2024).

System: 817829-284-R-J1-PDC complex spheroid viability
Experiment: Anticancer human tumor 817829-284-R-J1-PDC patient-derived colon adenocarcinoma cell line growth inhibition [POLQ]
Conditions: for IC50: curve of first compound; for viability, T/C: stronger effect = lower value
Summary of the method: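 Growth inhibition in 3D: complex spheroids (tumor PDC, HUVEC, MSC) treated with POLQ inhibitor combinations; where Cmax unknown, highest tested concentration 10 microM, except SN-38 at 1 microM.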

[1] = second compound 0.0316 µM, first compound 0.0316 µM
[2] = second compound 0.0316 µM, first compound 0.1 µM
[3] = second compound 0.0316 µM, first compound 0.316 µM
[4] = second compound 0.0316 µM, first compound 1 µM
[5] = second compound 0.0316 µM, first compound 3.16 µM
[6] = second compound 0.0316 µM, first compound 10 µM
[7] = second compound 0.1 µM, first compound 0.0316 µM
[8] = second compound 0.1 µM, first compound 0.1 µM
[9] = second compound 0.1 µM, first compound 0.316 µM
[10] = second compound 0.1 µM, first compound 1 µM
[11] = second compound 0.1 µM, first compound 3.16 µM
[12] = second compound 0.1 µM, first compound 10 µM
[13] = second compound 0.316 µM, first compound 0.0316 µM
[14] = second compound 0.316 µM, first compound 0.1 µM
[15] = second compound 0.316 µM, first compound 0.316 µM
[16] = second compound 0.316 µM, first compound 1 µM
[17] = second compound 0.316 µM, first compound 3.16 µM
[18] = second compound 0.316 µM, first compound 10 µM
[19] = second compound 1 µM, first compound 0.0316 µM
[20] = second compound 1 µM, first compound 0.1 µM
[21] = second compound 1 µM, first compound 0.316 µM
[22] = second compound 1 µM, first compound 1 µM
[23] = second compound 1 µM, first compound 3.16 µM
[24] = second compound 1 µM, first compound 10 µM
[25] = second compound 3.16 µM, first compound 0.0316 µM
[26] = second compound 3.16 µM, first compound 0.1 µM
[27] = second compound 3.16 µM, first compound 0.316 µM
[28] = second compound 3.16 µM, first compound 1 µM
[29] = second compound 3.16 µM, first compound 3.16 µM
[30] = second compound 3.16 µM, first compound 10 µM
[31] = second compound 10 µM, first compound 0.0316 µM
[32] = second compound 10 µM, first compound 0.1 µM
[33] = second compound 10 µM, first compound 0.316 µM
[34] = second compound 10 µM, first compound 1 µM
[35] = second compound 10 µM, first compound 3.16 µM
[36] = second compound 10 µM, first compound 10 µM
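Also: spheroids exposed to compounds for 7 days.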
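For viability, T/C in this document: 100% = DMSO vehicle-treated spheroids.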

## CC(C)n1c(=O)n(C)c2cnc3cc(F)c(-c4ccc(OCCCN5CCCCC5)nc4)cc3c21 + COC1C(OC(N)=O)C(O)C(Oc2ccc3c(O)c(NC(=O)c4ccc(O)c(CC=C(C)C)c4)c(=O)oc3c2C)OC1(C)C
Second compound 0.0316 µM
  IC50: > 10000 nM
Second compound 0.1 µM
  IC50: 7060 nM
Second compound 0.316 µM
  IC50: > 10000 nM
Second compound 1 µM
  IC50: 4940 nM
Second compound 3.16 µM
  IC50: 4970 nM
Second compound 10 µM
  IC50: 5050 nM
[1]
  viability, T/C: 88.5%
[2]
  viability, T/C: 95.9%
[3]
  viability, T/C: 61.4%
[4]
  viability, T/C: 93.1%
[5]
  viability, T/C: 84.5%
[6]
  viability, T/C: 52.6%
[7]
  viability, T/C: 74.4%
[8]
  viability, T/C: 82.5%
[9]
  viability, T/C: 129%
[10]
  viability, T/C: 102%
[11]
  viability, T/C: 72.7%
[12]
  viability, T/C: 40.2%
[13]
  viability, T/C: 78.5%
[14]
  viability, T/C: 96.5%
[15]
  viability, T/C: 86.3%
[16]
  viability, T/C: 93%
[17]
  viability, T/C: 71.4%
[18]
  viability, T/C: 55.8%
[19]
  viability, T/C: 102%
[20]
  viability, T/C: 102%
[21]
  viability, T/C: 84%
[22]
  viability, T/C: 81.1%
[23]
  viability, T/C: 62.5%
[24]
  viability, T/C: 31.8%
[25]
  viability, T/C: 81.9%
[26]
  viability, T/C: 87.8%
[27]
  viability, T/C: 78.6%
[28]
  viability, T/C: 85.8%
[29]
  viability, T/C: 71.3%
[30]
  viability, T/C: 16.9%
[31]
  viability, T/C: 80.5%
[32]
  viability, T/C: 65.4%
[33]
  viability, T/C: 62.1%
[34]
  viability, T/C: 81.4%
[35]
  viability, T/C: 74.4%
[36]
  viability, T/C: 16.9%

## CC1COCCN1c1cc(-c2ccnn2C)c2ccnc(-c3ccn[nH]3)c2n1 (stereo unspecified) + COC1C(OC(N)=O)C(O)C(Oc2ccc3c(O)c(NC(=O)c4ccc(O)c(CC=C(C)C)c4)c(=O)oc3c2C)OC1(C)C
Second compound 0.0316 µM
  IC50: < 31.6 nM
Second compound 0.1 µM
  IC50: < 31.6 nM
Second compound 0.316 µM
  IC50: < 31.6 nM
Second compound 1 µM
  IC50: < 31.6 nM
Second compound 3.16 µM
  IC50: < 31.6 nM
Second compound 10 µM
  IC50: < 31.6 nM
[1]
  viability, T/C: 30.4%
[2]
  viability, T/C: 13.2%
[3]
  viability, T/C: 5.49%
[4]
  viability, T/C: 4.46%
[5]
  viability, T/C: 3.26%
[6]
  viability, T/C: 3.12%
[7]
  viability, T/C: 38.1%
[8]
  viability, T/C: 12.8%
[9]
  viability, T/C: 4.68%
[10]
  viability, T/C: 4.07%
[11]
  viability, T/C: 3.1%
[12]
  viability, T/C: 3.09%
[13]
  viability, T/C: 38.2%
[14]
  viability, T/C: 11.9%
[15]
  viability, T/C: 5.3%
[16]
  viability, T/C: 4.05%
[17]
  viability, T/C: 3.4%
[18]
  viability, T/C: 2.6%
[19]
  viability, T/C: 26.4%
[20]
  viability, T/C: 11.9%
[21]
  viability, T/C: 5.6%
[22]
  viability, T/C: 4.46%
[23]
  viability, T/C: 3.01%
[24]
  viability, T/C: 2.34%
[25]
  viability, T/C: 42.2%
[26]
  viability, T/C: 11%
[27]
  viability, T/C: 7.02%
[28]
  viability, T/C: 4.4%
[29]
  viability, T/C: 2.97%
[30]
  viability, T/C: 2.67%
[31]
  viability, T/C: 47.5%
[32]
  viability, T/C: 13.4%
[33]
  viability, T/C: 5.44%
[34]
  viability, T/C: 4.22%
[35]
  viability, T/C: 3.19%
[36]
  viability, T/C: 2.65%

## CC1COCCN1c1cc(C2(S(C)(=N)=O)CC2)nc(-c2ccnc3[nH]ccc23)n1 (stereo unspecified) + COC1C(OC(N)=O)C(O)C(Oc2ccc3c(O)c(NC(=O)c4ccc(O)c(CC=C(C)C)c4)c(=O)oc3c2C)OC1(C)C
Second compound 0.0316 µM
  IC50: 338 nM
Second compound 0.1 µM
  IC50: 422 nM
Second compound 0.316 µM
  IC50: 363 nM
Second compound 1 µM
  IC50: 440 nM
Second compound 3.16 µM
  IC50: 169 nM
Second compound 10 µM
  IC50: 241 nM
[1]
  viability, T/C: 85.6%
[2]
  viability, T/C: 74.6%
[3]
  viability, T/C: 53.1%
[4]
  viability, T/C: 19.9%
[5]
  viability, T/C: 6.56%
[6]
  viability, T/C: 4.6%
[7]
  viability, T/C: 98.5%
[8]
  viability, T/C: 105%
[9]
  viability, T/C: 58.7%
[10]
  viability, T/C: 19.9%
[11]
  viability, T/C: 7.9%
[12]
  viability, T/C: 4.68%
[13]
  viability, T/C: 92.7%
[14]
  viability, T/C: 76.3%
[15]
  viability, T/C: 56.8%
[16]
  viability, T/C: 21%
[17]
  viability, T/C: 6.66%
[18]
  viability, T/C: 4.27%
[19]
  viability, T/C: 94.5%
[20]
  viability, T/C: 110%
[21]
  viability, T/C: 59.2%
[22]
  viability, T/C: 23.4%
[23]
  viability, T/C: 9.79%
[24]
  viability, T/C: 4.86%
[25]
  viability, T/C: 89.9%
[26]
  viability, T/C: 60.2%
[27]
  viability, T/C: 37.9%
[28]
  viability, T/C: 20.8%
[29]
  viability, T/C: 8.42%
[30]
  viability, T/C: 4.19%
[31]
  viability, T/C: 111%
[32]
  viability, T/C: 63.3%
[33]
  viability, T/C: 51.7%
[34]
  viability, T/C: 24.6%
[35]
  viability, T/C: 9.19%
[36]
  viability, T/C: 4.6%
